Test results: patent publication US6875760B2 (Novo Nordisk A/S, priority 1999, dated 2005)

The compounds below were run against T1, human glucagon receptor (Homo sapiens, UniProt P47871) (assay: Glucagon Binding Assay (III)). Settings: BHK cell membranes, WGA SPA beads, 125I-glucagon; read-out: Glu Bd Assay (III) IC50.
T1 construct: expressed in transfected cells; host or cells: BHK (baby hamster kidney) cells
Procedure, shortened: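 Non-specific binding was set with 500 nM glucagon in this SPA-type binding assay using WGA beads. The receptor source was a membrane preparation, kept on ice or at 4 °C, from BHK cells transfected with the human receptor. Scintillation counts were taken after 4 hours of shaking and 8–48 hours of settling.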

T1 sequence (P47871 26-477): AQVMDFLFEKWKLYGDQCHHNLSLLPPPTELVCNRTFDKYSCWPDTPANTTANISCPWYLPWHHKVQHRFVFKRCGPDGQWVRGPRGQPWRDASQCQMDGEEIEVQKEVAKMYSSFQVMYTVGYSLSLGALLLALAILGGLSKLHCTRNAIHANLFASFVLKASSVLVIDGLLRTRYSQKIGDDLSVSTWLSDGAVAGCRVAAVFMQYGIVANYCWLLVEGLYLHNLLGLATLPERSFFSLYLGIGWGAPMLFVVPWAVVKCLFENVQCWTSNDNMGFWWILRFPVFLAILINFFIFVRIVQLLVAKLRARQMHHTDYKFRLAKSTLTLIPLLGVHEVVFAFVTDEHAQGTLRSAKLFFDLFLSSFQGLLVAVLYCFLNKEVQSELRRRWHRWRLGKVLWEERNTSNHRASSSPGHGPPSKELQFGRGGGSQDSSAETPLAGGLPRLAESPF

| IC50 [nM] | Compound |
| --- | --- |
| 75 | N#Cc1cccc(NC(=O)N(Cc2ccc(C(=O)Nc3nn[nH]n3)cc2)c2ccc(C3CCCCC3)cc2)c1 [Example 256, 4-[3-(3-Cyanophenyl)-1-(4-cyclohexylphenyl)ureidomethyl]-N-(2H-tetrazol-5-yl)benzamide] |
| 1680 | O=C(O)CCNC(=O)c1ccc(CN(C(=O)Nc2ccc(OC(F)(F)F)cc2)c2ccc(Br)cc2)cc1 [Example 430, 3-{4-[1-(4-Bromophenyl)-3-(4-trifluoromethoxyphenyl)ureidomethyl]benzoylamino}propionic acid] |
| 169 | CC(NC(=O)N(Cc1ccc(C(=O)Nc2nn[nH]n2)cc1)c1ccc(C2CCCCC2)cc1)c1ccc(Cl)cc1 (single isomer, unassigned) [Example 338, 4-[3-[1-(4-Chlorophenyl)ethyl]-1-(4-cyclohexylphenyl)ureidomethyl]-N-(2H-tetrazol-5-yl)benzamide] |
| 470 | O=C(Nc1nn[nH]n1)c1ccc(CN(CC(c2ccccc2)c2ccccc2)C(=O)Cc2cccc(OC(F)(F)F)c2)cc1 [Example 529, 4-({(2,2-Diphenylethyl)-[2-(3-trifluoromethoxyphenyl)acetyl]amino}methyl)-N-(2H-tetrazol-5-yl)benzamide] |
| 19 | CCCCN1C(=O)c2ccc(NC(=O)N(Cc3ccc(C(=O)Nc4nn[nH]n4)cc3)C3CCC(C(C)(C)C)CC3)cc2C1=O (centres unmarked) [Example 633, 4-[1-(4-tert-Butylcyclohexyl)-3-(N′-butylphthalimid-4-yl)ureidomethyl]-N-(2H-tetrazol-5-yl)benzamide] |
| 120 | O=C(Nc1nn[nH]n1)c1ccc(CN(C(=O)NCc2cc(Cl)cc(Cl)c2)c2ccc(C3CCCCC3)cc2)cc1 [Example 397, 4-[1-(4-Cyclohexylphenyl)-3-(3,5-dichlorobenzyl)ureidomethyl]-N-(2H-tetrazol-5-yl)benzamide] |
| 764 | CN(C)C(=O)c1cccc(NC(=O)N(Cc2ccc(C(=O)Nc3nn[nH]n3)cc2)c2ccc(C(C)(C)C)cc2)c1 [Example 461, N,N-Dimethyl-3-{3-(4-tert-butylphenyl)-3-[4-(2H-tetrazol-5-ylcarbamoyl)benzyl]ureido}benzamide] |
| 772 | CNS(=O)(=O)c1ccc(Cl)c(NC(=O)N(Cc2ccc(C(=O)Nc3nn[nH]n3)cc2)c2ccc(C3CCCCC3)cc2)c1 [Example 467, 4-[3-(2-Chloro-5-methylsulfamoylphenyl)-1-(4-cyclohexylphenyl)ureidomethyl]-N-(2H-tetrazol-5-yl)benzamide] |
| 522 | CCC(C)c1ccc(N(Cc2ccc(C(=O)Nc3nn[nH]n3)cc2)C(=O)Nc2cccc(S(C)(=O)=O)c2)cc1 (centres unmarked) [Example 446, 4-[1-(4-sec-Butylphenyl)-3-(3-methylsulfonylphenyl)ureidomethyl]-N-(2H-tetrazol-5-yl)benzamide] |
| 23 | CCCCN1C(=O)c2ccc(NC(=O)N(Cc3ccc(C(=O)Nc4nn[nH]n4)cc3)c3ccc(C(C)(C)C)cc3)cc2C1=O [Example 378, 4-[3-(2-Butyl-1,3-dioxo-2,3-dihydro-1H-isoindol-5-yl)-1-(4-tert-butylphenyl)ureidomethyl]-N-(2H-tetrazol-5-yl)benzamide] |
| 5 | O=C(Nc1nn[nH]n1)c1ccc(CN(C(=O)Nc2cccc(C(F)(F)F)c2)c2ccc(C3CCCCC3)cc2)cc1 [Example 567, 4-[1-(4-Cyclohexylphenyl)-3-(3-trifluoromethylphenyl)ureidomethyl]-N-(2H-tetrazol-5-yl)benzamide] |
| 276 | O=C(Nc1nn[nH]n1)c1ccc(CN(C(=O)/C=C/c2c(Cl)cccc2Cl)c2ccc(C3CCCCC3)cc2)cc1 [Example 480, 4-({(4-Cyclohexylphenyl)-[3-(2,6-dichlorophenyl)acryloyl]amino}methyl)-N-(2H-tetrazol-5-yl)benzamide] |
| 61 | O=C(Nc1nn[nH]n1)c1ccc(CN(C(=O)Nc2cccc([N+](=O)[O-])c2)c2ccc(C3=CCCCC3)cc2)cc1 [Example 308, 4-[1-(4-Cyclohex-1-enylphenyl)-3-(3-nitrophenyl)ureidomethyl]-N-(2H-tetrazol-5-yl)benzamide] |

Further lines, the compound ahead of its results:

| Compound | IC50 [nM] |
| --- | --- |
| CC(C)N1C(=O)c2ccc(NC(=O)N(Cc3ccc(C(=O)NCCC(=O)O)cc3)C3CCC(C(C)(C)C)CC3)cc2C1=O (centres unmarked) [Example 632, 3-{4-[1-(4-tert-Butylcyclohexyl)-3-(N′-isopropylphthalimid-4-yl)ureidomethyl]benzoylamino}propionic acid] | 91 |
| CCCCOC(=O)c1ccc(NC(=O)N(Cc2ccc(C(=O)NCCC(=O)O)cc2)C2CCC(C(C)(C)C)CC2)cc1 (centres unmarked) [Example 33, 4-{3-(4-tert-Butylcyclohexyl)-3-[4-(2-carboxyethylcarbamoyl)benzyl]ureido}benzoic acid butyl ester] | 104 |
| O=C(O)CCNC(=O)c1ccc(CN(CC(c2ccccc2)c2ccccc2)C(=O)/C=C/c2c(Cl)cccc2Cl)cc1 [Example 505, 3-(4-{[[3-(2,6-Dichlorophenyl)acryloyl]-(2,2-diphenylethyl)amino]methyl}benzoylamino)propionic acid] | 449 |
| CC(C)(C)c1ccc(N(Cc2ccc(C(=O)NCCC(=O)O)cc2)C(=O)Oc2cc(Cl)cc(Cl)c2)cc1 [Example 409, 3-(4-{[(4-tert-Butylphenyl)-(3,5-dichlorophenoxycarbonyl)amino]methyl}benzoylamino)propionic acid] | 520 |
| O=C(O)CCNC(=O)c1ccc(CN(C(=O)c2ccc(Cc3ccccc3)cc2)c2ccc(C3CCCCC3)cc2)cc1 [Example 521, 3-(4-{[(4-Benzylbenzoyl)-(4-cyclohexylphenyl)amino]methyl}benzoylamino)propionic acid] | 3420 |
| CC(C)(C)C1CCC(N(Cc2ccc(C(=O)N(CCC(=O)O)CC3CC3)cc2)C(=O)Nc2ccc(OC(F)(F)F)cc2)CC1 (centres unmarked) [Example 90, 3-({4-[1-(4-tert-Butylcyclohexyl)-3-(4-trifluoromethoxyphenyl)ureidomethyl]benzoyl}cyclopropylmethyl)aminopropionic acid] | 4200 |
| CC(C)(C)[C@H]1CC[C@H](N(Cc2ccc(C(=O)NCCC(=O)O)cc2)C(=O)Nc2ccc(OC(F)(F)F)c(C#N)c2)CC1 [Example 251, 3-{4-[1-(trans-4-tert-Butylcyclohexyl)-3-(3-cyano-4-trifluoromethoxyphenyl)ureidomethyl]benzoylamino}propionic acid] | 56 |
| CC(Oc1ccc(OC(F)(F)F)cc1)C(=O)N(Cc1ccc(C(=O)Nc2nn[nH]n2)cc1)CC(c1ccccc1)c1ccccc1 (centres unmarked) [Example 530, 4-({(2,2-Diphenylethyl)-[2-(4-trifluoromethoxyphenoxy)propionyl]amino}methyl)-N-(2H-tetrazol-5-yl)benzamide] | 3980 |
| CCCCC(CC)CN(Cc1ccc(C(=O)NCCC(=O)O)cc1)C(=O)Nc1ccc(CC)cc1 (centres unmarked) [Example 42, 3-{4-[1-(2-Ethylhexyl)-3-(4-ethylphenyl)ureidomethyl]benzoylamino}propionic acid] | 117 |
| CC(C)(C)[C@H]1CC[C@H](N(Cc2ccc(C(=O)Nc3nn[nH]n3)s2)C(=O)Nc2ccc(OC(F)(F)F)cc2)CC1 [Example 578, 5-[1-(trans-4-tert-Butylcyclohexyl)-3-(4-trifluoromethoxyphenyl)ureidomethyl]thiophene-2-carboxylic acid (2H-tetrazol-5-yl)amide] | 226 |
